Results published in US9617282B2, “Macrocyclic compounds as IRAK4 inhibitors for the treatment of inflammatory diseases” (BIOGEN MA INC., priority 2013, dated 2017).

What was measured:
IRAK4 = IRAK4 (Homo sapiens (Human), UniProt Q9NWZ3); assay: IRAK-4 biochemical kinase assay, AlphaScreen format; settings: 1 nM IRAK4, 1.6 μM peptide, 10 μM ATP, 3.5 h at RT
Protocol: The biochemical assay is in a AlphaScreen format. The kinase reaction is based on the IRAK-4 phosphorylation of a biotin labeled peptide. The phosphopeptide is incubated with anti-phosphothreonine antibody as well as streptavidin- and protein A-coated beads. Binding of the protein-A coated beads to the antibody and the streptavidin beads to the peptide, leads to an energy transfer from one bead to the other, ultimately producing a luminescent/fluorescent signal.

A549 cells = assay: Cell-based assay, IL-6 ELISA quantification in IL-1 beta stimulated A549 cells; settings: 2 ng/ml human IL-1 beta overnight, class symbols, read-out: Celluar Data EC50
Protocol: The cell-based assays is based on IL-6 ELISA quantification. Briefly, A549 cells are cultured in DMEM with 10% FBS medium. When cells reach 80% confluence they are trypsin treated and seeded in 96-well plate at 2.5×10^4 cells/well. Then, 20 ul of compound serial dilutions (starting at 10 uM, 10 points) are added to the cell plate; incubate for 1 hour at 37 C and stimulated with 2 ng/ml human IL-1 beta 37 C overnight. The next day 100 ul of cell supernatant per well are analyzed on a Human IL-6 Quantikine ELISA kit from R&D Systems.

Chain of IRAK4 (Q9NWZ3 whole entry, species assumed): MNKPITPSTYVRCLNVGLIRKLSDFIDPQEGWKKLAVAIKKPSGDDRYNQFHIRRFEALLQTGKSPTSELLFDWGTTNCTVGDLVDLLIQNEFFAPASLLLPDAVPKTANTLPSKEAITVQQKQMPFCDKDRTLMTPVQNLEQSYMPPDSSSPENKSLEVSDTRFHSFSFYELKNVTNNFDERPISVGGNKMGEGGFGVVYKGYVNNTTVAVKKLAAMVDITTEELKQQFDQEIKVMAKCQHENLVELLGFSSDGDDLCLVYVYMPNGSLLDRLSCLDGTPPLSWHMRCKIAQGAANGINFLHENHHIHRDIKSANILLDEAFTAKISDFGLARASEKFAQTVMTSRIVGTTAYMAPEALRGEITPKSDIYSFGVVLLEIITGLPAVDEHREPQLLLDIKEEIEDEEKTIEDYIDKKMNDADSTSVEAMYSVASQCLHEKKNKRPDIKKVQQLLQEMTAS

IC50 (IRAK4; class symbols) [nM]	EC50 (A549 cells) [µM]	IC50 (IRAK4; given as numeric bound) [nM]	SMILES
< 100	< 1		O=C1Nc2cn(C3CCOCC3)nc2C(=O)NCCOCCCOc2cc(ccn2)-c2nc1cs2 [Example 123]
< 100	< 1		Cn1cc2c(n1)C(=O)NCCCCCCCCNc1cc(ccn1)-c1nc(co1)C(=O)N2 [Compound 29]
< 100	< 1		O=C1Nc2cn(C3CCOCC3)nc2C(=O)NCCOCCNc2cc(ccn2)-c2nc1cs2 [Compound 46]
< 100	< 10		O=C1Nc2cn(C3CCOCC3)nc2C(=O)NCCOCCOc2cc(ccn2)-c2nc1cs2 [Compound 44]
< 100	> 10		CNC(=O)Cn1cc2c(n1)C(=O)NCCOCCOc1cc(ccn1)-c1nc(cs1)C(=O)N2 [Example 161]
< 100	> 10		CN(C)CCNC(=O)c1ccc2c(c1)NC(=O)c1csc(n1)-c1ccnc(c1)NCCCCCO2 [Compound 16]
< 100	< 10		CN(C)CCn1cc2c(n1)C(=O)NCCOCCNc1cc(ccn1)-c1nc(cs1)C(=O)N2 [Example 117]
< 100	< 1		O=C1Nc2ccccc2C(=O)NCCOCCOc2cc(ccn2)-c2nc1cs2 [Example 127]
< 100	< 1		CC(=O)N1CCCc2cc(ccn2)-c2nc(cs2)C(=O)Nc2cn(C3CCOCC3)nc2C(=O)NCC1 [Example 170]
< 100	< 1		O=C1Nc2ccccc2OCCCCCNc2cc(ccn2)-c2nc1co2 [Compound 2]
< 100	< 10		O=C1NC[C@@H]2CC[C@@H](C2)OCCCNc2cc(ccn2)-c2nc1cs2 [Example 83]
< 100	> 10		CC(C)(C)OC(=O)N1CCN(CCn2cc3c(n2)C(=O)NCCOCCOc2cc(ccn2)-c2nc(cs2)C(=O)N3)CC1 [Example 114]
< 100	< 10		O=C1Nc2cn(C3CCOCC3)nc2C(=O)NC2CC(=O)N(CCCc3cc(ccn3)-c3nc1cs3)C2=O (stereo not drawn) [Example 200]
< 100	< 10		O=C1Nc2cn(CCN3CCNCC3)nc2C(=O)NCCOCCNc2cc(ccn2)-c2nc1cs2 [Example 145]
< 1000	> 10		CC(C)(C)OC(=O)N1CCN(CCn2ncc3c2C(=O)NCCOCCOc2cc(ccn2)-c2nc(cs2)C(=O)N3)CC1 [Example 108]
< 100	< 1		O=C1Nc2cn(C3CCOCC3)nc2C(=O)NCCOCCCn2cc(cn2)-c2nc1cs2 [Example 136]
< 100	< 1		Cn1cc2c(n1)C(=O)NCCCCNc1cc(ccn1)-c1nc(cs1)C(=O)N2 [Example 131]
< 100	> 10		CC(C)(C)OC(=O)Cn1cc2c(n1)C(=O)NCCOCCOc1cc(ccn1)-c1nc(cs1)C(=O)N2 [Example 137]
< 100	< 10		CN1CCN(CCn2cc3c(n2)C(=O)NCCOCCNc2cc(ccn2)-c2nc(cs2)C(=O)N3)CC1 [Example 143]
< 100	< 1		O=C1Nc2cnccc2C(=O)NCCOCCOc2cc(ccn2)-c2nc1cs2 [Example 130]
< 100	< 1		Cn1cc2c(n1)C(=O)NCCOCCCOc1cc(ccn1)-c1nc(cs1)C(=O)N2 [Example 122]
< 100	< 10		O=C1Nc2cn(C3CCOCC3)nc2C(=O)NCCCCCc2cc(ccn2)-c2nc1co2 [Compound 40]
< 100	< 10		O=C1Nc2cn(C3CCCCO3)nc2C(=O)NCCOCCOc2cc(ccn2)-c2nc1cs2 (stereo not drawn) [Example 110]
< 10000	> 10		O=C1Nc2cnn(CCN3CCNCC3)c2C(=O)NCCOCCOc2cc(ccn2)-c2nc1cs2 [Example 109]
< 1000	> 10		O=C1Nc2cn(CC3CCNCC3)nc2C(=O)NCCOCCOc2cc(ccn2)-c2nc1cs2 [Example 160]
< 100	< 10		O=C1Nc2cn(CCN3CCNCC3)nc2C(=O)NCCOCCOc2cc(ccn2)-c2nc1cs2 [Example 115]
< 100	< 10		CC(C)(C)OC(=O)N1CCC(Cn2cc3c(n2)C(=O)NCCOCCOc2cc(ccn2)-c2nc(cs2)C(=O)N3)CC1 [Example 159]

IC50 (IRAK4; class symbols) [nM]	EC50 (A549 cells) [µM]	IC50 (IRAK4; given as numeric bound) [nM]	SMILES
< 100	< 1		Cn1cc2c(n1)C(=O)NCCCCOc1cc(ccn1)-c1nc(cs1)C(=O)N2 [Example 91]
< 100	< 1		Cn1cc2c(n1)C(=O)NCCCCCCNc1cc(ccn1)-c1nc(co1)C(=O)N2 [Compound 32]
< 100	> 10		CC(C)n1cc2c(n1)C(=O)NCCOCCOc1cc(ccn1)-c1nc(cs1)C(=O)N2 [Example 162]
< 100	< 1		O=C1Nc2ccccc2OC(CO)CCCCNc2cc(ccn2)-c2nc1co2 (stereo not drawn) [Compound 12]
< 1000	> 10		NC(=O)Cn1cc2c(n1)C(=O)NCCOCCOc1cc(ccn1)-c1nc(cs1)C(=O)N2 [Example 147]
< 100	> 10		O=C1Nc2cn(CCCO)nc2C(=O)NCCOCCOc2cc(ccn2)-c2nc1cs2 [Example 152]
< 100	< 10		O=C1Nc2cn(C3CCOCC3)nc2C(=O)NCCCCOc2cc(ccn2)-c2nc1cs2 [Example 90]
< 100	> 10		CN1CCCc2cc(ccn2)-c2nc(cs2)C(=O)Nc2cn(C3CCOCC3)nc2C(=O)NCC1 [Example 169]
< 100	> 10		O=C1Nc2cn(CCC3CCNCC3)nc2C(=O)NCCOCCOc2cc(ccn2)-c2nc1cs2 [Example 155]
< 100	< 10		O=C1Nc2cn(C3CCOCC3)nc2C(=O)NCCCOCCOc2cc(ccn2)-c2nc1cs2 [Example 121]
< 100	< 10		CC(C)(C)OC(=O)N1CCC(n2cc3c(n2)C(=O)NCCOCCOc2cc(ccn2)-c2nc(cs2)C(=O)N3)CC1 [Example 164]
< 100	> 10		O=C1Nc2cn(CCN3CCCCC3)nc2C(=O)NCCOCCOc2cc(ccn2)-c2nc1cs2 [Example 116]
< 100	> 10		CN1CCC(CCn2cc3c(n2)C(=O)NCCOCCOc2cc(ccn2)-c2nc(cs2)C(=O)N3)CC1 [Example 153]
< 100	< 1		Cn1cc2c(n1)C(=O)NCCCCOc1cc(ccn1)-c1nc(co1)C(=O)N2 [Compound 34]
< 100	< 1		O=C1Nc2cn(C3CCOCC3)nc2C(=O)NCCCOCCOc2cc(ccn2)-c2nc1co2 [Example 125]
< 1000	< 10		Cn1cc2c(n1)C(=O)NCCOCCc1cc(ccn1)-c1nc(cs1)C(=O)N2 [Example 133]
< 100	< 1		Cn1cc2c(n1)C(=O)NCCOCCCn1cc(cn1)-c1nc(cs1)C(=O)N2 [Example 135]
< 100	< 1		Cn1cc2c(n1)C(=O)NCCCOCCOc1cc(ccn1)-c1nc(cs1)C(=O)N2 [Example 120]
< 100	< 1		O=C1Nc2cn(CCN3CCCCC3)nc2C(=O)NCCOCCNc2cc(ccn2)-c2nc1cs2 [Example 119]
< 100	< 10		O=C1Nc2ccccc2OCCCCCCn2cc(cn2)-c2nc1co2 [Compound 7]
< 100	> 10		CN(C)CCCn1cc2c(n1)C(=O)NCCOCCOc1cc(ccn1)-c1nc(cs1)C(=O)N2 [Example 138]
< 100	< 1		O=C1Nc2cn(C3CCOCC3)nc2C(=O)NCCCCNc2cc(ccn2)-c2nc1cs2 [Example 132]
< 100	< 1		O=C1Nc2cn(CCN3CCOCC3)nc2C(=O)NCCOCCNc2cc(ccn2)-c2nc1cs2 [Example 118]
< 100	> 10		O=C1Nc2ccccc2OCCCCOCc2cc(ccn2)-c2nc1co2 [Compound 4]
< 1000	< 10		O=C1NC[C@H]2CC[C@@H](C2)OCCCNc2cc(ccn2)-c2nc1cs2 [Example 82]
		> 10000	O=C1Nc2ccccc2OCCCCNc2cc(ccn2)-c2nc1co2 [Example 70]
